According to article PMC4121618 (Molecular Pain, 2014):
Where two headings read alike, the source gives them in different places.

Tests used:
[1] = test system: human MOP receptor in CHO cells; set-up: method as in PMID 14600248; conditions: CHOhMOP, Thompson et al.; ref [35]; read-out: [35S]GTPγS binding EC50; cited from earlier work
[2] = test system: C6rMOP cells (rat MOP receptor); set-up: method as in PMID 16291875; conditions: ref [36], read-out: Potency EC50; cited from earlier work
mice [3] = test system: mice; set-up: method as in PMID 16033285; conditions: s.c., hot-plate test, ref [30]; cited from earlier work
human MOP receptors [4] = molecular target: T1, human MOP receptors (Homo sapiens, UniProt P35372); experiment: [35S]GTPγS functional assay in CHOhMOP cell membranes; type: biochemical; set-up: expressed in transfected cells; host or cells: CHO cells; conditions: for Emax: read-out: [35S]GTPγS functional assay Emax
T1 sequence (P35372 whole entry): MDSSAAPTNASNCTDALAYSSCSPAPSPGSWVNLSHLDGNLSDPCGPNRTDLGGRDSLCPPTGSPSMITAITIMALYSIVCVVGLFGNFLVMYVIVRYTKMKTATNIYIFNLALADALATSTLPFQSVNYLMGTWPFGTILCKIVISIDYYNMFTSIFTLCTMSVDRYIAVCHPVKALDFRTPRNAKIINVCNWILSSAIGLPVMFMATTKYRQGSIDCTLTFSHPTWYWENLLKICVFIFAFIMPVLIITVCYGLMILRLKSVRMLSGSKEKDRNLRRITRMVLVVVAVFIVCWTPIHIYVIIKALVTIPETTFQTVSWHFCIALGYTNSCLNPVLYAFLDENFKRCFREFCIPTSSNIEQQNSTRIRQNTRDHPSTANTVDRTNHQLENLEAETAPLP

mice [5] = test system: mice; set-up: method as in PMID 16033285; conditions: s.c., PPQ abdominal stretching test, ref [30]; cited from earlier work
human MOP receptor = test system: human MOP receptor; set-up: method as in PMID 22002663; conditions: HEK293 cells co-expressing human MOP receptor and Gαqi3, ref [37], cited from earlier work
mice [6] = test system: mice; set-up: method as in PMID 16033285; conditions: s.c., tail-flick test, ref [30]; cited from earlier work
human MOP receptors [7] = molecular target: T1, human MOP receptors; experiment: Calcium mobilization assay in CHOhMOP cells expressing Gαqi5; type: cell-based; set-up: expressed in transfected cells; host or cells: CHO cells stably co-expressing Gαqi5; conditions: for Emax: read-out: Calcium mobilization assay Emax
DOP receptor [8] = molecular target: T2, DOP receptor (Rattus norvegicus, UniProt P33533); conditions: cited from earlier work; for Ki: read-out: Ki DOP
T2 construct: from tissue; host or cells: Sprague-Dawley rat brain membranes
T2 sequence (P33533 whole entry): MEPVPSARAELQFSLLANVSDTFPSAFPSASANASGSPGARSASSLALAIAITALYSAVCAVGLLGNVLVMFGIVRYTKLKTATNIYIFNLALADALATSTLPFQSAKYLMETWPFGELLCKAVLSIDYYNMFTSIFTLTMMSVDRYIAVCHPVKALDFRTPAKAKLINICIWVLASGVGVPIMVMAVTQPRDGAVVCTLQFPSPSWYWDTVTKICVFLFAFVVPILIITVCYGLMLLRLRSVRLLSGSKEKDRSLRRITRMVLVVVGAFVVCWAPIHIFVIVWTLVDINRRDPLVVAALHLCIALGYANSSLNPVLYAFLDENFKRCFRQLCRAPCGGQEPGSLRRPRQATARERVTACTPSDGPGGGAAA

MOP receptor [9] = molecular target: T3, MOP receptor (Rattus norvegicus, UniProt P33535); conditions: read-out: Ki MOP; cited from earlier work
T3 construct: from tissue; host or cells: Sprague-Dawley rat brain membranes
T3 sequence (P33535 whole entry): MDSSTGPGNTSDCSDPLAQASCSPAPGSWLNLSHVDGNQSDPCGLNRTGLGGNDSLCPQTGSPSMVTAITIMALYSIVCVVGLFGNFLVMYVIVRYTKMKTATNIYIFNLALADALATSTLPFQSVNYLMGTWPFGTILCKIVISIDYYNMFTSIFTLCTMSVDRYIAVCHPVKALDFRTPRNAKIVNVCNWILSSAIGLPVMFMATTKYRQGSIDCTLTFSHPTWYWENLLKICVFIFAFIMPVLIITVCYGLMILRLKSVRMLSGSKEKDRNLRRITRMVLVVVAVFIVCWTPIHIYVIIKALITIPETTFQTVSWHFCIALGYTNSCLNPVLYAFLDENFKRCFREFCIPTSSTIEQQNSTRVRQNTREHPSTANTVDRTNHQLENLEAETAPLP

KOP receptor [10] = molecular target: T4, KOP receptor (Rattus norvegicus, UniProt P34975); conditions: cited from earlier work; for Ki: read-out: Ki KOP
T4 construct: from tissue; host or cells: Sprague-Dawley rat brain membranes
T4 sequence (P34975 whole entry): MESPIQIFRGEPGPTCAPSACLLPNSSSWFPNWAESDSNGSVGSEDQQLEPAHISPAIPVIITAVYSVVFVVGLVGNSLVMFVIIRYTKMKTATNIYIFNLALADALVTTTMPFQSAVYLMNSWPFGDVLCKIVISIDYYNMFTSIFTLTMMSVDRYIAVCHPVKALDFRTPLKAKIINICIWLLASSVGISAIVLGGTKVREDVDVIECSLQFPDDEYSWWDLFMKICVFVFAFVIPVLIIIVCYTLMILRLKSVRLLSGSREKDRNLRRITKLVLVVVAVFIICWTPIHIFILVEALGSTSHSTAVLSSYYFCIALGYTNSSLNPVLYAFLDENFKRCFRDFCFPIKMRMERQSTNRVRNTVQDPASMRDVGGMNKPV

DOP receptor [11] = molecular target: T2, DOP receptor; experiment: Radioligand binding assay, DOP receptor, rat brain membranes ([3H][Ile5,6]deltorphin II); conditions: for Selectivity ratio DOP/MOP: Ki ratio, rat brain membranes
mice [12] = experiment: Tail-flick test; type: in vivo; conditions: s.c.; for ED50: Mus musculus, sc, 20 min, tail-flick test, 20 min after dosing, read-out: ED50 (95% CL) TF
mice [13] = experiment: PPQ abdominal stretching test; type: in vivo; conditions: for ED50: Mus musculus, sc, PPQ abdominal stretching test, read-out: ED50 (95% CL) PPQ; for Times more active than oxycodone (antinociceptive potency): maximum over hot-plate, tail-flick and PPQ assays
KOP receptor [14] = molecular target: T4, KOP receptor; experiment: Radioligand binding assay, KOP receptor, rat brain membranes ([3H]U69,593); conditions: for Selectivity ratio KOP/MOP: Ki ratio, rat brain membranes
mice [15] = experiment: Hot-plate test; type: in vivo; conditions: s.c.; for ED50: Mus musculus, sc, 0.5 h, hot-plate test, 30 min after dosing, read-out: ED50 (95% CL) HP
MOP receptor [16] = molecular target: T3, MOP receptor; experiment: Radioligand binding assay, MOP receptor, rat brain membranes ([3H]DAMGO)
MOP receptor [17] = test system: MOP receptor; set-up: method as in PMID 15857143; conditions: ref [13]; cited from earlier work
animals = conditions: ref [14]; cited from earlier work
[18] = molecular target: T5, human KOP receptors (CHOhKOP) (Homo sapiens, UniProt P41145); experiment: Binding assay in CHOhKOP cell membranes ([3H]diprenorphine)
T5 construct: expressed in transfected cells
T5 sequence (P41145 whole entry): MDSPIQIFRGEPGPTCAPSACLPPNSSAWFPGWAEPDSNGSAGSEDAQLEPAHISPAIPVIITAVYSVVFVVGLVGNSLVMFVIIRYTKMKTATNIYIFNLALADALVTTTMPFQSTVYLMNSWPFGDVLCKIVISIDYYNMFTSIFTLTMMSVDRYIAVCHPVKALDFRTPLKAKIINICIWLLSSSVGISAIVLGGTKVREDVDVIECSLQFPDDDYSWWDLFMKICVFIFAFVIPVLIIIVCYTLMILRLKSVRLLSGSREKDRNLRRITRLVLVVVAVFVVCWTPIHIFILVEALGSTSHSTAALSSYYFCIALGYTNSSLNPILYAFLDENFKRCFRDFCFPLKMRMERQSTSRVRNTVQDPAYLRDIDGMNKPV

[19] = molecular target: T6, rat DOP receptors (C6rDOP) (Rattus norvegicus, UniProt P33533); experiment: Binding assay in C6rDOP cell membranes ([3H]diprenorphine)
T6 construct: expressed in transfected cells
T6 sequence (P33533 whole entry): as the sequence (P33533 whole entry) above

[20] = molecular target: T7, recombinant rat MOP receptor expressed in C6 glioma cells (Rattus norvegicus, UniProt P33535); experiment: Binding assay in C6rMOP cell membranes ([3H]diprenorphine)
T7 construct: expressed in transfected cells
T7 sequence (P33535 whole entry): as the sequence (P33535 whole entry) above

[21] = absolute stimulation, set as 100%

Row | Structure (SMILES) | ED50 (95% CL) HP (mice [3]) | Emax (human MOP receptors [4]) [%] | ED50 (95% CL) PPQ (mice [5]) | ED50 (95% CL) TF (mice [6]) | Emax (human MOP receptors [7]) [%] | Ki (DOP receptor [8]) [nM] | EC50 (human MOP receptors [4]) [nM] | Ki (KOP receptor [10]) [nM] | EC50 (human MOP receptors [7]) [nM] | Times greater potency than oxycodone and 14-OMC, calcium mobilization (human MOP receptors [7]; CHOhMOP Gαqi5 cells) | Ki (DOP receptor [11]) [nM] | Selectivity ratio DOP/MOP (DOP receptor [11]) | ED50 (mice [12]) [mg/kg] | ED50 (mice [13]) [mg/kg] | Ki (KOP receptor [14]) [nM] | Selectivity ratio KOP/MOP (KOP receptor [14]) | ED50 (mice [15]) [mg/kg] | Ki (MOP receptor [16]) [nM] | also measured
1 | COc1ccc2c3c1O[C@H]1C(=O)CC[C@@]4(O)[C@@H](C2)N(C)CC[C@]314 [Oxycodone, oxycodone, reference compound] | 1.37 (0.48-3.92) mg/kg, s.c. | 92 ± 9 | 0.38 (0.19-0.75) mg/kg, s.c. | 0.94 (0.40-2.30) mg/kg, s.c. | 38 ± 3 |  |  |  |  |  |  |  |  |  |  |  |  |  | EC50 [1]: 1400 nM; EC50 [2]: 373 nM; Efficacy, changes in intracellular calcium levels (human MOP receptor): 100%; EC50 (human MOP receptor; read-out: Potency, changes in intracellular calcium levels): 1740 nM
2 | COc1ccc2c(c1O)C13C=C(C#N)CCC1(OC)C(C2)N(C)CC3 (stereo not shown) [compound 3] | 0.25 (0.11-0.59) mg/kg, s.c. | 85 ± 3 | 0.11 (0.072-0.16) mg/kg, s.c. | 0.21 (0.11-0.40) mg/kg, s.c. | 61 ± 6 | 197 ± 29 | 26.2 ± 1.7 | 378 ± 155 | 140 ± 21 | up to 10 times |  |  |  |  |  |  |  |  | Selectivity ratio DOP/MOP (DOP receptor [8]): 37; Ki (MOP receptor [9]): 5.38 ± 0.42 nM; Selectivity ratio KOP/MOP (KOP receptor [10]): 70
3 | COc1ccc2c(c1OC)C13C=C(C(N)=O)CCC1(OC)C(C2)N(C)CC3 (stereo not shown) [compound 4] |  | 107 ± 26 |  |  | 59 ± 8 |  | 25.6 ± 9.5 |  | 56.1 ± 11.3 |  | 28.8 ± 2.3 | 18 | 1.34 | 0.18 | 105 ± 45 | 65 | 1.3 | 1.61 ± 0.05 | Times less active than compound 1, hot-plate (mice [15]): about 3 times
4 | COc1ccc2c3c1OC1C(C#N)=CCC4(OC)C(C2)N(C)CCC314 (stereo not shown) [compound 6] |  | 121 ± 27 |  |  | 84 ± 10 |  | 25.1 ± 3.6 |  | 173 ± 21 | up to 10 times | 239 ± 40 | 32 | 0.12 | 0.003 | 194 ± 68 | 26 | 0.089 | 7.39 ± 0.34 | Times less potent than analogue 5, tail-flick (mice [12]): 3 times; Times more potent than 14-OMC, tail-flick (mice [12]): 7 times; Times more potent than analogue 3, tail-flick (mice [12]): ~2 times; Times more potent than 14-OMC, PPQ (mice [13]; s.c.): 72 times; Times more potent than analogue 3, PPQ (mice [13]; s.c.): ~37 times; Times more active than oxycodone (antinociceptive potency) (mice [13]; s.c.): up to 165 times; Times more potent than 14-OMC, hot-plate (mice [15]): 11 times; Times more potent than analogue 3, hot-plate (mice [15]): ca. 3 times; Increase in binding to the MOP receptor vs 6-keto counterpart 14-OMC (MOP receptor [16]; rat brain membranes): about 5 times
5 | C[C@@H](NC(=O)[C@@H](N)Cc1ccc(O)cc1)C(=O)NCC(=O)N(C)[C@@H](Cc1ccccc1)C(=O)NCCO [DAMGO, [D-Ala^2,Me-Phe^4,Gly-ol^5]enkephalin, reference compound] |  |  |  |  |  |  |  |  |  |  |  |  |  |  |  |  |  |  | Maximal DAMGO stimulation in [35S]GTPγS functional assay (human MOP receptors [4]; [21]): 225 ± 32%; Maximal DAMGO stimulation in calcium mobilization assay (human MOP receptors [7]; [21]): 217 ± 21%
6 | COC12CCC(=O)C3Oc4c(O)ccc5c4C31CCN(C)C2C5 (stereo not shown) [14-O-methyloxymorphone] |  |  |  |  |  |  |  |  |  |  |  |  |  |  |  |  |  |  | Times increased binding affinity at the MOP receptor vs oxymorphone (MOP receptor [17]): 9 times; Times more potent in inducing an antinociceptive effect than oxymorphone (animals): up to 40 times
7 | COc1ccc2c(c1OC)C13C=C(C#N)C=CC1(OC)C(C2)N(C)CC3 (stereo not shown) [compound 5] |  | 133 ± 7 |  |  | 70 ± 8 |  | 1.64 ± 0.19 |  | 21.7 ± 5.5 |  | 30.3 ± 2.9 | 56 | 0.04 | 0.0023 | 200 ± 40 | 370 | 0.08 | 0.54 ± 0.04 | Ki [18]: 229 nM; MOP selectivity vs. KOP ([18]; recombinant receptors, CHOhKOP vs C6rMOP): 327 times; Ki [19]: 56 nM; MOP selectivity vs. DOP ([19]; recombinant receptors, C6rDOP vs C6rMOP): 80 times; Ki [20]: 0.7 nM; Times more active than oxycodone (antinociceptive potency) (mice [13]; s.c.): up to 165 times; Times more potent than DAMGO, calcium mobilization (human MOP receptors [7]; CHOhMOP Gαqi5 cells): about 2 times
8 | COc1ccc2c3c1O[C@H]1C(=O)CC[C@@]4(OC)[C@@H](C2)N(C)CC[C@]314 [14-OMC, 14-O-methyloxycodone, reference compound] |  | 137 ± 55 |  |  | 72 ± 7 |  | 325 ± 94 |  | 973 ± 204 |  | 116 ± 15 | 3 | 0.8 | 0.22 | 454 ± 6 | 13 | 1.02 | 35.3 ± 2.1 | 
9 | COc1ccc2c(c1OC)C13C=C(C#N)CCC1(O)C(C2)N(C)CC3 (stereo not shown) [compound 2] | 0.15 (0.054-0.41) mg/kg, s.c. | 97 ± 15 | 0.026 (0.012-0.055) mg/kg, s.c. | 0.12 (0.061-0.23) mg/kg, s.c. | 69 ± 7 | 107 ± 5 | 42.5 ± 14.9 | 364 ± 7 | 116 ± 9 | up to 10 times |  |  |  |  |  |  |  |  | Selectivity ratio DOP/MOP (DOP receptor [8]): 44; Ki (MOP receptor [9]): 2.44 ± 0.13 nM; Selectivity ratio KOP/MOP (KOP receptor [10]): 149
10 | COc1ccc2c(c1O)C13C=C(C#N)CCC1(O)C(C2)N(C)CC3 (stereo not shown) [compound 1] | 0.50 (0.12-2.02) mg/kg, s.c. | 98 ± 4 | 0.18 (0.076-0.42) mg/kg, s.c. | 1.88 (1.25-2.83) mg/kg, s.c. | 57 ± 4 | 498 ± 79 | 273 ± 24 | 1650 | 957 ± 233 | up to 10 times |  |  |  |  |  |  |  |  | 
